Data published in patent US6759416B2, “Anticancer conjugates of camptothecin and unsaturated fatty acids” (priority 2002, dated 2004).
Read-outs that look alike come from different tables or passages of the source.

Assays:
L1210 leukemia = system: L1210 leukemia
Protocol: The compounds were tested in male BDF1 mice (18-22 g, 6 mice/group) bearing L1210 leukemia cells. Tumor lines were propagated in DBA/2 female mice with cell (10^5 cells/mouse) transfer every 7 days. Diluted ascitic fluid (0.1 mL) containing 10^5 leukemia cells were inoculated, i.p. in mice on day 0. Mice were injected with 0.1 mL of drug preparation.
A conjugate of HCPT and piperidinopiperidine, PP-HCPT, was synthesized, and its antitumor activity was evaluated against L1210 leukemia in mice.
DHA-HCPT was also tested using multiple doses (days 1, 5 and 9).

L1210 leukemia cells = assay: Anticancer activity assay in vitro: 48-h 3H-thymidine incorporation (proliferation) assay; assay type: cell-based, murine; conditions: for IC50: L1210 leukemia cells, 48-h proliferation assay, 3H-thymidine uptake, mean of three experiments; for DNA fragmentation / apoptosis: L1210 cells, data not shown
Protocol: L1210 leukemia cells (2.5×10^4cells/well) in RPMI-1640 medium supplemented with 10% FCS medium were seeded in a 96-well plate. Drugs (10 μL) at increasing concentrations were added to each well, and the total volume was adjusted to 0.1 mL/well using the same medium. HCPT was used as a positive control. The plate was incubated for 24 h at 37° C. followed by addition of 10 μL of ^3H-thymidine (20 μCi/mL). The plate was incubated for another 24 h. The cells were harvested, and radioactivity was counted using the Packard Matrix 96 beta counter. The results were expressed as the minimal concentration that inhibits ^3H-thymidine incorporation by 50% (IC50). Percent growth inhibition was calculated as follows: [(total cpm—experimental cpm)/total cpm]×100. […] Doxorubicin (Dox) was used as a positive control.

colon 38 carcinoma = assay: Antitumor activity against colon 38 carcinoma in mice (single dose, early stage and late stage); assay type: in vivo; conditions: for weight loss: stated as loss
From the text: However, DHA-HCPT (weight loss of 16%) is less toxic than cisplatin (weight loss of 20%).
The first experiment was designed to evaluate the antitumor activity of the drugs against early tumor, i.e., the tumors were transplanted on day 0, and the drugs were given beginning the next day. The second experiment was designed to evaluate the drug's activity against the established tumor, i.e., the tumors were transplanted on day 0, and the drugs were given when the tumors grew to 3-4 mm in size.
In the late tumor model, at a dose of 100 mg/kg, DHA-HCPT inhibited tumor growth by 80% (Table 10).

Lewis lung carcinoma = assay: Antitumor activity against Lewis lung carcinoma in mice; assay type: in vivo
Protocol: For example, at a dose of 120 mg/kg, it inhibited tumor growth by 83% while the bodyweight loss was only 10%. The parent HCPT inhibited tumor growth by 57% at a dose of 20 mg/kg with a 24% weight loss. The group treated with DHA-HCPT also lived longer.

[1] = 125 mg/kg i.p. on days 1, 5 and 9
[2] = 150 mg/kg i.p. on days 1, 5 and 9
[3] = L1210, 48-h cell growth inhibition assay
[4] = 5 mg/kg i.p. on days 1, 5, and 9
[5] = early stage, 67 mg/kg i.p. on days 1, 5 and 9
[6] = early stage, 100 mg/kg i.p. on days 1, 5 and 9
[7] = late stage, 100 mg/kg i.p. on days 9, 13 and 17
[8] = 120 mg/kg i.p. on days 1, 5 and 9
[9] = 100 mg/kg i.p. on days 1, 5, and 9

O=P1(N(CCCl)CCCl)NCCCO1 (stereo not drawn) [Cyclophosphamide, reference compound]
% ILS (L1210 leukemia; [1]): 173% | % Weight change (L1210 leukemia; [1]): −15% | 30-day survivors (cures) (L1210 leukemia; 125 mg/kg i.p. on days 1, 5 and 9, 6 mice/group): 0 | % ILS (L1210 leukemia; 200 mg/kg i.p. on day 1): 123% | % Weight change (L1210 leukemia; 200 mg/kg i.p. on day 1): −9% | 30-day survivors (L1210 leukemia; 200 mg/kg i.p. on day 1, 6 mice/group): 0

COc1cccc2c1C(=O)c1c(O)c3c(c(O)c1C2=O)C[C@@](O)(C(=O)CO)C[C@@H]3O[C@H]1C[C@H](N)[C@H](O)[C@H](C)O1 [Dox, Doxorubicin, reference compound]
IC50 (L1210 leukemia cells; Mus musculus): 180 ± 90 nM

CC[C@@]1(O)C(=O)OCc2c1cc1n(c2=O)Cc2cc3cc(OC(=O)N4CCC(N5CCCCC5)CC4)ccc3nc2-1 [PP-HCPT, 10-[4-(1-Piperidino)-1-piperidino]carbonyloxycamptothecin]
% ILS (L1210 leukemia; 37 mg/kg i.p. on day 1): 46% | % Weight change (L1210 leukemia; 37 mg/kg i.p. on day 1): 5% | 30-day survivors (L1210 leukemia; 37 mg/kg i.p. on day 1, 6 mice/group): 0 | % ILS (L1210 leukemia; 73 mg/kg i.p. on day 1): 77% | % Weight change (L1210 leukemia; 73 mg/kg i.p. on day 1): 2% | 30-day survivors (L1210 leukemia; 73 mg/kg i.p. on day 1, 6 mice/group): 0 | % ILS (L1210 leukemia; [2]): 123% | % Weight change (L1210 leukemia; [2]): −18% | fold less potent than DHA-HCPT (IC50) (L1210 leukemia cells; [3]): 16 fold | fold less potent than HCPT (IC50) (L1210 leukemia cells; [3]): 128 fold | IC50 (L1210 leukemia cells): 30000 nM

N.N.[Cl][Pt][Cl] [Cisplatin, reference compound]
% TGI (colon 38 carcinoma; 10 mg/kg i.p. on day 1): 88% | % Weight change (colon 38 carcinoma; 10 mg/kg i.p. on day 1): −20% | Tumor weight (g ± SD) (colon 38 carcinoma; 10 mg/kg i.p. on day 1, control 1.20 ± 0.84): 0.14 ± 0.07 g | weight loss (colon 38 carcinoma; given once (10 mg/kg per Table 8)): 20% | % TGI (Lewis lung carcinoma; [4]): 73% | % Weight change (Lewis lung carcinoma; [4]): −19% | Tumor weight (g ± SD) (Lewis lung carcinoma; 5 mg/kg i.p. on days 1, 5, and 9, control 1.20 ± 0.61): 0.32 ± 0.17 g

CC[C@@]1(O)C(=O)OCc2c1cc1n(c2=O)Cc2cc3cc(O)ccc3nc2-1 [HCPT, 10-hydroxycamptothecin, reference compound]
% ILS (L1210 leukemia; 15 mg/kg i.p. on day 1): 77% | % Weight change (L1210 leukemia; 15 mg/kg i.p. on day 1): −10% | bodyweight loss (L1210 leukemia; 15 mg/kg, one dose, stated as loss): 10% | % ILS (L1210 leukemia; 20 mg/kg i.p. on day 1): 108% | 30-day survivors (L1210 leukemia; 20 mg/kg i.p. on day 1, 6 mice/group): 0 | % Weight change (L1210 leukemia; 20 mg/kg i.p. on day 1, BDF1 mice, day 0 to lightest weight): −16% | DNA fragmentation / apoptosis (L1210 leukemia cells): caused DNA fragmentation and cells died by apoptosis | IC50 (L1210 leukemia cells): 230 nM | % ILS (Lewis lung carcinoma; 20 mg/kg i.p. on day 1): 16% | % TGI (Lewis lung carcinoma; 20 mg/kg i.p. on day 1): 57% | % Weight change (Lewis lung carcinoma; 20 mg/kg i.p. on day 1): −24% | Tumor weight (g ± SD) (Lewis lung carcinoma; 20 mg/kg i.p. on day 1, control 1.77 ± 0.89): 0.76 ± 0.59 g | weight loss (Lewis lung carcinoma; 20 mg/kg, one dose i.p., stated as loss): 24%

CC/C=C\C/C=C\C/C=C\C/C=C\C/C=C\C/C=C\CCC(=O)Nc1ccc(CN2CCN(C(=O)Oc3ccc4nc5c(cc4c3)Cn3c-5cc4c(c3=O)COC(=O)[C@]4(O)CC)CC2)cc1 (stereo in doubt) [DHA-HCPT, 10-[4-[[4-(cis-4,7,10,13,16,19-Docosahexenoyl)amino]benzyl]-1-piperazino]carbonyl-oxycamptothecin]
weight loss (colon 38 carcinoma; 120 mg/kg given once): 16% | % TGI (colon 38 carcinoma; 120 mg/kg i.p. on day 1): 91% | % Weight change (colon 38 carcinoma; 120 mg/kg i.p. on day 1): −16% | Tumor weight (g ± SD) (colon 38 carcinoma; 120 mg/kg i.p. on day 1, control 1.20 ± 0.84): 0.11 ± 0.09 g | % TGI (colon 38 carcinoma; [5]): 43% | % Weight change (colon 38 carcinoma; [5]): −10% | Tumor weight (g ± SD) (colon 38 carcinoma; early stage, 67 mg/kg i.p. on days 1, 5 and 9, control 1.13 ± 0.39): 0.64 ± 0.50 g | % TGI (colon 38 carcinoma; [6]): 78% | % Weight change (colon 38 carcinoma; [6]): −12% | Tumor weight (g ± SD) (colon 38 carcinoma; early stage, 100 mg/kg i.p. on days 1, 5 and 9, control 1.13 ± 0.39): 0.25 ± 0.22 g | % TGI (colon 38 carcinoma; early stage, 150 mg/kg i.p. on days 1 and 5): 84% | Tumor weight (g ± SD) (colon 38 carcinoma; early stage, 150 mg/kg i.p. on days 1 and 5, control 1.13 ± 0.39): 0.18 ± 0.12 g | % TGI (colon 38 carcinoma; [7]): 80% | % Weight change (colon 38 carcinoma; [7]): −14% | Tumor weight (g ± SD) (colon 38 carcinoma; late stage, 100 mg/kg i.p. on days 9, 13 and 17, control 1.13 ± 0.39): 0.22 ± 0.14 g | % TGI (colon 38 carcinoma; late stage, 150 mg/kg i.p. on days 9 and 13): 79% | Tumor weight (g ± SD) (colon 38 carcinoma; late stage, 150 mg/kg i.p. on days 9 and 13, control 1.13 ± 0.39): 0.24 ± 0.18 g | % ILS (L1210 leukemia; 40 mg/kg i.p. on day 1): 108% | % Weight change (L1210 leukemia; 40 mg/kg i.p. on day 1): 2% | 30-day survivors (L1210 leukemia; 40 mg/kg i.p. on day 1, 6 mice/group): 0 | % ILS (L1210 leukemia; 60 mg/kg i.p. on day 1): 138% | % Weight change (L1210 leukemia; 60 mg/kg i.p. on day 1): 1% | 30-day survivors (L1210 leukemia; 60 mg/kg i.p. on day 1, 6 mice/group): 0 | % ILS (L1210 leukemia; [8]): 323% | % Weight change (L1210 leukemia; [8]): −12% | % ILS (L1210 leukemia; 180 mg/kg i.p. on day 1): 154% | % Weight change (L1210 leukemia; 180 mg/kg i.p. on day 1): −12% | fold less potent than HCPT (IC50) (L1210 leukemia cells; [3]): 8 fold | DNA fragmentation / apoptosis (L1210 leukemia cells): caused DNA fragmentation and cells died by apoptosis | IC50 (L1210 leukemia cells): 1800 nM | % ILS (Lewis lung carcinoma; 80 mg/kg i.p. on day 1): 23% | % TGI (Lewis lung carcinoma; 80 mg/kg i.p. on day 1): 48% | % Weight change (Lewis lung carcinoma; 80 mg/kg i.p. on day 1): −5% | Tumor weight (g ± SD) (Lewis lung carcinoma; 80 mg/kg i.p. on day 1, control 1.77 ± 0.89): 0.93 ± 0.53 g | % TGI (Lewis lung carcinoma; [9]): 88% | % Weight change (Lewis lung carcinoma; [9]): −9% | Tumor weight (g ± SD) (Lewis lung carcinoma; 100 mg/kg i.p. on days 1, 5, and 9, control 1.20 ± 0.61): 0.15 ± 0.10 g | % ILS (Lewis lung carcinoma; 120 mg/kg i.p. on day 1): 33% | % TGI (Lewis lung carcinoma; 120 mg/kg i.p. on day 1): 83% | % Weight change (Lewis lung carcinoma; 120 mg/kg i.p. on day 1): −10% | Tumor weight (g ± SD) (Lewis lung carcinoma; 120 mg/kg i.p. on day 1, control 1.77 ± 0.89): 0.31 ± 0.18 g | cures (Lewis lung carcinoma; 120 mg/kg, multiple doses (days 1, 5, and 9)): 50% | bodyweight loss (Lewis lung carcinoma; 120 mg/kg, one dose i.p., stated as loss): 10%
